Here are results for one compound from ChEMBL document CHEMBL4145459, “Synthesis of (3S,4S,5S)-trihydroxylpiperidine derivatives as enzyme stabilizers to improve therapeutic enzyme activity in Fabry patient cell lines” (Eur J Med Chem, 2018).

One series deals with Lymphocyte. The experiment in a line: Cytotoxicity against human lymphocytes at 100 uM after 48 to 72 hrs by AlamarBlue assay. The class given is cell-based. For orientation: Alamar Blue is a resazurin reagent that responds to reducing activity.
Series [1] concerns the target T1, Beta-galactosidase (Homo sapiens) (UniProt P16278).
T1 sequence (whole entry): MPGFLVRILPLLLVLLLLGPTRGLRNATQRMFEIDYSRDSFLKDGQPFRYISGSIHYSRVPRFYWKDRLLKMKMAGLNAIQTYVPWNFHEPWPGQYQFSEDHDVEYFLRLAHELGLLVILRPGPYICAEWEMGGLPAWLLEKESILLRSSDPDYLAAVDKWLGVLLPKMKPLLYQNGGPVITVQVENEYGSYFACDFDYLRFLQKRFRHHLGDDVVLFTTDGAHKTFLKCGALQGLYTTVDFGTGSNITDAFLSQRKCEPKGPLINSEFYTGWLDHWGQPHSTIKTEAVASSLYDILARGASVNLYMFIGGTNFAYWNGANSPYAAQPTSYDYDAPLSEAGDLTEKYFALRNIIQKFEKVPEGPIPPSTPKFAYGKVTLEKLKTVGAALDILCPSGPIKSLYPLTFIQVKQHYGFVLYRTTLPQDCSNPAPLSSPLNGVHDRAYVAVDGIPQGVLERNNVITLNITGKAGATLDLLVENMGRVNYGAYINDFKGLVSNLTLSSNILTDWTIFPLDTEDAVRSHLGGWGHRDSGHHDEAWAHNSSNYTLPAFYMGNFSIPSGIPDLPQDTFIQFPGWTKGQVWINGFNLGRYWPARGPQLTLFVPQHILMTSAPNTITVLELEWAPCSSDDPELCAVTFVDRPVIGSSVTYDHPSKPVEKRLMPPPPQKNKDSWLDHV
Description: Inhibition of human lymphocyte beta-galactosidase at 100 uM using 4-MU-glycopyranoside as substrate by spectrophotometric analysis.

Series [2] concerns the target Lysosomal alpha-glucosidase (Homo sapiens) (UniProt P10253). Description: Inhibition of human recombinant acid alpha-glucosidase at 100 uM using 4-MU-glycopyranoside as substrate by spectrophotometric analysis.
Series [3] concerns the target T2, Lysosomal alpha-mannosidase (Homo sapiens) (UniProt O00754).
T2 sequence (whole entry): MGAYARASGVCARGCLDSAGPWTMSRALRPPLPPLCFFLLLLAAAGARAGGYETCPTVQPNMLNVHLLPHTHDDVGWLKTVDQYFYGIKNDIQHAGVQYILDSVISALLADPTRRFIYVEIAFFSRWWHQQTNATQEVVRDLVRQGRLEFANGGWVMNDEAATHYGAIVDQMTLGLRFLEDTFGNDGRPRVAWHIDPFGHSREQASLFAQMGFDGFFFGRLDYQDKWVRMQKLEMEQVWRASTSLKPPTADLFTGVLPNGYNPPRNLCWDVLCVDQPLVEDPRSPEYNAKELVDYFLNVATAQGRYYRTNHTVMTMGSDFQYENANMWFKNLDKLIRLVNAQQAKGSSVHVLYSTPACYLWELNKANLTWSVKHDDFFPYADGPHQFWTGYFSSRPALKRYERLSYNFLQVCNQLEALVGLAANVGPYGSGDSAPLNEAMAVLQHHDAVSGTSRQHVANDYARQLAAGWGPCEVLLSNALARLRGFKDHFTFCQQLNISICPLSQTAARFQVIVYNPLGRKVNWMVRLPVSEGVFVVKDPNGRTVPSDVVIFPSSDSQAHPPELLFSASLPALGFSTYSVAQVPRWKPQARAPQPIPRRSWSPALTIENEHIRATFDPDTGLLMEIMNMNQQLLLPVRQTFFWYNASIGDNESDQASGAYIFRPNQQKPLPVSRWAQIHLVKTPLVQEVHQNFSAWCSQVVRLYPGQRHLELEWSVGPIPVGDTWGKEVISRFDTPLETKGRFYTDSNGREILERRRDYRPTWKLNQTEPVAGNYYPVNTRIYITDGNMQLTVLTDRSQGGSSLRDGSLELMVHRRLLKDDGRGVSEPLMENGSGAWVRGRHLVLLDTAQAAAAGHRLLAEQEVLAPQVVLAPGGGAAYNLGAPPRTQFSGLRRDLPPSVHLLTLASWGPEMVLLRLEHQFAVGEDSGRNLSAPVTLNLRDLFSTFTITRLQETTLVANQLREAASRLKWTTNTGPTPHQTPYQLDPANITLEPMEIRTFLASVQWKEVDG
Description: Inhibition human recombinant acid alpha-mannosidase at 100 uM using p-nitrophenyl-glycopyranoside as substrate by spectrophotometric analysis.

Series [4] concerns the target T3, Alpha-glucosidase (Geobacillus stearothermophilus) (UniProt P94451).
T3 sequence (whole entry): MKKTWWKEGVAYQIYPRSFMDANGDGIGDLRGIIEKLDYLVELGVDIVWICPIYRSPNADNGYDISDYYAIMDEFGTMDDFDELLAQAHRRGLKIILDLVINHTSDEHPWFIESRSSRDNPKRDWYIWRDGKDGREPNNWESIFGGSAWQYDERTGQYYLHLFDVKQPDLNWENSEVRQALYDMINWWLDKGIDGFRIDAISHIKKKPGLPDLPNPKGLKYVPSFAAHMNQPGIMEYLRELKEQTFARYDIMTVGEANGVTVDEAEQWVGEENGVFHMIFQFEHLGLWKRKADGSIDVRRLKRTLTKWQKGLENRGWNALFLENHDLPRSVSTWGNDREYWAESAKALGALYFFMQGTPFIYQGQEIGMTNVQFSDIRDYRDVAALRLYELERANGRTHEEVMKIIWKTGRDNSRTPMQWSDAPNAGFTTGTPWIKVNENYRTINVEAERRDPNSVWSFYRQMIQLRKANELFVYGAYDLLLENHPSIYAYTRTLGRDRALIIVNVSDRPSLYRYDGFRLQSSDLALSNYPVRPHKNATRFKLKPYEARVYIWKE
The experiment in a line: Inhibition of Bacillus stearothermophilus alpha-glucosidase at 100 uM using 4-MU-glycopyranoside as substrate by spectrophotometric analysis.

The target of series [5] is T4, Lysosomal acid glucosylceramidase (Homo sapiens) (UniProt P04062).
T4 sequence (whole entry): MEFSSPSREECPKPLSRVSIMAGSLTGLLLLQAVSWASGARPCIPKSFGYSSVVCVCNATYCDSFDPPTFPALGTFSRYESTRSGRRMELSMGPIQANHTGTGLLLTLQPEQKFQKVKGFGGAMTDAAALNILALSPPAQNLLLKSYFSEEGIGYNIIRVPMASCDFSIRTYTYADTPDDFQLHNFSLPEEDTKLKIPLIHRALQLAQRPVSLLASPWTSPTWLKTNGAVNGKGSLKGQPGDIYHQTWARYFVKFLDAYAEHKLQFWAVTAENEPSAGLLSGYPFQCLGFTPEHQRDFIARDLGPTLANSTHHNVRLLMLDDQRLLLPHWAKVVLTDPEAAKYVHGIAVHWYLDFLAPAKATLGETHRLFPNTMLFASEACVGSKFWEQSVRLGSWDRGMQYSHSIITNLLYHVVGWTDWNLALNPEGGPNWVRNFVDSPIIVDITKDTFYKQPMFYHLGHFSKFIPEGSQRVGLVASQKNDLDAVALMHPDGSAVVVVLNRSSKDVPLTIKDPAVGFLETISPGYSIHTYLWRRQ
Description: Inhibition of human recombinant acid beta-glucosidase at 100 uM using 4-MU-glycopyranoside as substrate by spectrophotometric analysis.

For series [6], the target named is T5, Alpha-galactosidase A (Homo sapiens) (UniProt P06280).
T5 sequence (whole entry): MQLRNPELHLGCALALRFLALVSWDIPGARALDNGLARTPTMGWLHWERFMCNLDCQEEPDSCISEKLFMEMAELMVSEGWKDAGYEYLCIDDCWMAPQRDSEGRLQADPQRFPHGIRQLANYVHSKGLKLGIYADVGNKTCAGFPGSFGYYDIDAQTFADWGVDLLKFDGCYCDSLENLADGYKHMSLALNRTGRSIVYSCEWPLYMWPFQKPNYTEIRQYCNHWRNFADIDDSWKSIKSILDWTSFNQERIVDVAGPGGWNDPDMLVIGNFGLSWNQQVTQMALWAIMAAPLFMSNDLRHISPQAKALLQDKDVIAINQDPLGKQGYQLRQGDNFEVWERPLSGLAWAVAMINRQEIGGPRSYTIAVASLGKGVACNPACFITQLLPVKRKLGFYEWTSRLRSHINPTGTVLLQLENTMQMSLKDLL
Description: Inhibition of human recombinant alpha-galactosidase A at 100 uM using 4-MU-alpha-d-galactopyranoside as substrate by fluorescence assay relative to control.

Series [7] has as its target Alpha-galactosidase (Coffea arabica) (UniProt Q42656). The experiment in a line: Inhibition of green coffee beans alpha-galactosidase at 100 uM using 4-MU-glycopyranoside as substrate by spectrophotometric analysis relative to control.

Molecules are shown by their SMILES. Active and inactive are the calls of the source. No cut-off for these calls is given here.

Chain of Alpha-galactosidase (Coffea arabica) (Q42656 16-378 limits assumed): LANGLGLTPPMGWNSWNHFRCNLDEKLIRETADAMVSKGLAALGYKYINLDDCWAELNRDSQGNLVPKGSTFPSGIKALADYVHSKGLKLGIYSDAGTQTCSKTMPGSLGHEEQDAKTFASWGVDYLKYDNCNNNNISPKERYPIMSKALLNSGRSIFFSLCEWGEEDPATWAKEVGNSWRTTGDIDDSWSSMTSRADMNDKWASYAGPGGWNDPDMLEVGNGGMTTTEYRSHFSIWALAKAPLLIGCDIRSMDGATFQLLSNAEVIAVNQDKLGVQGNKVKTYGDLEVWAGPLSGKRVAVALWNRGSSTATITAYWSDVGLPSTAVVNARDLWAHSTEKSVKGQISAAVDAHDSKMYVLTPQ

For the compound `COc1ccc(OC)c(/C=C/C(=O)NC[C@H]2NC[C@H](O)[C@@H](O)[C@H]2O)c1`, the Activity entry in the series with Lymphocyte is “Non-Toxic”. For the same compound, the inhibition result in series [1], in series [2], in series [3], in series [4] and in series [5] was “inactive” in each case. Moreover, the results for the inhibition in series [6] and in series [7] were 99% and 57%, respectively.
